Experimental data published in patent US20250197407A1 (Jazz Pharmaceuticals Ireland Limited, priority 2022, published 2025).

Target: SOS1/KRAS WT (Homo sapiens (Human), UniProt Q07889)
Test: SOS1/KRAS WT HTRF binding assay (FRET-based protein-protein interaction)
Conditions: inhibition of His6-SOS1 (aa564-1049, 40 nM) binding to GST-KRAS-WT (aa1-188, 40 nM); at least two independent replicates; read-out: SOS1/KRAS WT HTRF Binding assay pIC50 (converted)
Method in brief: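 GST-KRAS WT (aa1-188, 40 nM) and His6-SOS1 exchange domain (aa564-1049, 40 nM) were incubated 60 min at room temperature with compound dose response in HEPES pH7.3 buffer with 10 mM EDTA and 100 mM KF. Anti-GST-Eu(K)/anti-6His-XL665 HTRF was read after 4 hr, and IC50 came from a four-parameter fit (≥2 replicates).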

SOS1/KRAS WT, sequence (Q07889 564-1049): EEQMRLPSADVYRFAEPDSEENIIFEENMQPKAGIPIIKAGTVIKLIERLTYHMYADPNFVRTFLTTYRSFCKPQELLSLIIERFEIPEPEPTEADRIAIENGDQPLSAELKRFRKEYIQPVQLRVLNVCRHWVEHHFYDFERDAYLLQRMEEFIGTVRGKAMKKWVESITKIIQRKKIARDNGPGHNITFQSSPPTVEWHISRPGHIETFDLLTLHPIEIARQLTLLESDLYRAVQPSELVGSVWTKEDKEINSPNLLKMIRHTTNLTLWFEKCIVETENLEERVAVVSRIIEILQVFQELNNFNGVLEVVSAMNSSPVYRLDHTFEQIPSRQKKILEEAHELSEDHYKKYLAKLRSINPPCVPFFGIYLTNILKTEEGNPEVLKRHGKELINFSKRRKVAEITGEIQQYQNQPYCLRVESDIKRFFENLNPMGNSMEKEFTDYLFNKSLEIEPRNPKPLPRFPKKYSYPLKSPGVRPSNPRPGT

Cc1c([C@@H](C)Nc2nnc(C)c3cc4c(cc23)N(C2CC2)C(=O)C42CCOCC2)cccc1C(F)(F)CO [Compound 119, 1-cyclopropyl-5-methyl-8-[[(1R)-1-[3-(1,1-difluoro-2-hydroxy-ethyl)-2-methyl-phenyl]ethyl]amino]spiro[pyrrolo [2,3-g]phthalazine-3,4′-tetrahydropyran]-2-one]
IC50: 7.41 nM

Cc1nnc(N[C@H](C)c2cccc(C(F)(F)C(C)(C)O)c2)c2cc3c(cc12)C1(CCOCC1)C(=O)N3C1CC1 [Compound 120, 1-cyclopropyl-5-methyl-8-[[(1R)-1-[3-(1,1-difluoro-2-hydroxy-2-methyl-propyl)phenyl]ethyl]amino]spiro [pyrrolo[2,3-g]phthalazine-3,4′-tetrahydropyran]-2-one]
IC50: 10.5 nM

Cc1nnc(N[C@H](C)c2cccc(C(F)(F)C(C)(C)O)c2F)c2cc3c(cc12)C1(CCOCC1)C(=O)N3C1CC1 [Compound 121, 1-cyclopropyl-5-methyl-8-[[(1R)-1-[3-(1,1-difluoro-2-hydroxy-2-methyl-propyl)-2-fluoro-phenyl]ethyl]amino]spiro[pyrrolo [2,3-g]phthalazine-3,4′-tetrahydropyran]-2-one]
IC50: 6.31 nM

COC1(C)C(=O)N(C2CC2)c2cc3c(N[C@H](C)c4cccc(C(F)(F)CO)c4F)nnc(C)c3cc21 (stereo partly drawn) [Compound 122, 1-cyclopropyl-3-methoxy-3,5-dimethyl-8-[[(1R)-1-[3-(1,1-difluoro-2-hydroxy-ethyl)-2-fluoro-phenyl]ethyl]amino]pyrrolo[2,3-g]phthalazin-2-one]
IC50: 5.75 nM

Cc1nnc(N[C@H](C)c2cccc(C(F)(F)CO)c2F)c2cc3c(cc12)C(C)(C)C(=O)N3C1CC1 [Compound 123, 1-cyclopropyl-3,3,5-trimethyl-8-[[(1R)-1-[3-(1,1-difluoro-2-hydroxy-ethyl)-2-fluoro-phenyl]ethyl]amino]pyrrolo[2,3-g]phthalazin-2-one]
IC50: 8.71 nM

Cc1c([C@@H](C)Nc2nnc(C)c3cc4c(cc23)N(C(C)C)C(=O)C4(C)C)cccc1C(F)(F)C(C)(C)O [Compound 124, 1-isopropyl-3,3,5-trimethyl-8-[[(1R)-1-[3-(1,1-difluoro-2-hydroxy-2-methyl-propyl)-2-methyl-phenyl]ethyl]amino]pyrrolo[2,3-g]phthalazin-2-one]
IC50: 6.17 nM

Cc1nnc(N[C@H](C)c2cccc(C(F)(F)C(C)(C)O)c2)c2cc3c(cc12)N(C)C(=O)C31CCOCC1 [Compound 125, 1,8-dimethyl-5-[[(1R)-1-[3-(1,1-difluoro-2-hydroxy-2-methyl-propyl)phenyl]ethyl]amino]spiro [pyrrolo[3,2-g]phthalazine-3,4′-tetrahydropyran]-2-one]
IC50: 6.61 nM

CCOC1(C)C(=O)N(C)c2cc3c(N[C@H](C)c4cccc(C(F)(F)C(C)(C)O)c4C)nnc(C)c3cc21 (stereo partly drawn) [Compound 126, 3-ethoxy-1,3,5-trimethyl-8-[[(1R)-1-[3-(1,1-difluoro-2-hydroxy-2-methyl-propyl)-2-methyl-phenyl]ethyl]amino]pyrrolo[2,3-g]phthalazin-2-one]
IC50: 9.12 nM

Cc1c([C@@H](C)Nc2nnc(C)c3cc4c(cc23)N(C2CC2)C(=O)C4(C)C)cccc1C(F)(F)C(C)(C)O [Compound 127, 1-cyclopropyl-3,3,5-trimethyl-8-[[(1R)-1-[3-(1,1-difluoro-2-hydroxy-2-methyl-propyl)-2-methyl-phenyl]ethyl]amino]pyrrolo[2,3-g]phthalazin-2-one]
IC50: 12.9 nM

Cc1nnc(N[C@H](C)c2cccc(C(F)(F)CO)c2)c2cc3c(cc12)N(C)C(=O)C31CCOCC1 [Compound 128, 1,8-dimethyl-5-[[(1R)-1-[3-(1,1-difluoro-2-hydroxy-ethyl)phenyl]ethyl]amino]spiro [pyrrolo[3,2-g]phthalazine-3,4′-tetrahydropyran]-2-one]
IC50: 6.31 nM

Cc1c([C@@H](C)Nc2nnc(C)c3cc4c(cc23)C2(CCOCC2)C(=O)N4C)cccc1C(F)(F)CO [Compound 129, 1,8-dimethyl-5-[[(1R)-1-[3-(1,1-difluoro-2-hydroxy-ethyl)-2-methyl-phenyl]ethyl]amino]spiro[pyrrolo [3,2-g]phthalazine-3,4′-tetrahydropyran]-2-one]
IC50: 6.61 nM

Cc1c([C@@H](C)Nc2nnc(C)c3cc4c(cc23)C2(CCOCC2)C(=O)N4C)cccc1C(F)(F)C(C)(C)O [Compound 131, 1,8-dimethyl-5-[[(1R)-1-[3-(1,1-difluoro-2-hydroxy-2-methyl-propyl)-2-methyl-phenyl]ethyl]amino]spiro[pyrrolo [3,2-g]phthalazine-3,4′-tetrahydropyran]-2-one]
IC50: 7.94 nM

CCOC1(C)C(=O)N(C)c2cc3c(N[C@H](C)c4cccc(C(F)(F)C(C)(C)O)c4F)nnc(C)c3cc21 (stereo partly drawn) [Compound 132, 3-ethoxy-1,3,5-trimethyl-8-[[(1R)-1-[3-(1,1-difluoro-2-hydroxy-2-methyl-propyl)-2-fluoro-phenyl]ethyl]amino]pyrrolo[2,3-g]phthalazin-2-one]
IC50: 7.94 nM

CCOC1(C)C(=O)N(C)c2cc3c(N[C@H](C)c4cccc(C(F)(F)CO)c4)nnc(C)c3cc21 (stereo partly drawn) [Compound 133, 3-ethoxy-1,3,5-trimethyl-8-[[(1R)-1-[3-(1,1-difluoro-2-hydroxy-ethyl)phenyl]ethyl]amino]pyrrolo [2,3-g]phthalazin-2-one]
IC50: 8.51 nM

CCOC1(C)C(=O)N(C)c2cc3c(N[C@H](C)c4cccc(C(F)(F)CO)c4C)nnc(C)c3cc21 (stereo partly drawn) [Compound 134, 3-ethoxy-1,3,5-trimethyl-8-[[(1R)-1-[3-(1,1-difluoro-2-hydroxy-ethyl)-2-methyl-phenyl]ethyl]amino]pyrrolo[2,3-g]phthalazin-2-one]
IC50: 6.17 nM

CCOC1(C)C(=O)N(C)c2cc3c(N[C@H](C)c4cccc(C(F)(F)CO)c4F)nnc(C)c3cc21 (stereo partly drawn) [Compound 135, 3-ethoxy-1,3,5-trimethyl-8-[[(1R)-1-[3-(1,1-difluoro-2-hydroxy-ethyl)-2-fluoro-phenyl]ethyl]amino]pyrrolo[2,3-g]phthalazin-2-one]
IC50: 10 nM

COCC1(C)C(=O)N(C2CC2)c2cc3c(N[C@H](C)c4cccc(C(F)(F)C(C)(C)O)c4F)nnc(C)c3cc21 (stereo partly drawn) [Compound 136, 1-cyclopropyl-8-[[(1R)-1-[3-(1,1-difluoro-2-hydroxy-2-methyl-propyl)-2-fluoro-phenyl]ethyl]amino]-3-(methoxymethyl)-3,5-dimethyl-pyrrolo[3,2-g]phthalazin-2-one]
IC50: 14.1 nM

COCC1(C)C(=O)N(C2CC2)c2cc3c(N[C@H](C)c4cccc(C(F)(F)C(C)(C)O)c4C)nnc(C)c3cc21 (stereo partly drawn) [Compound 137, 1-cyclopropyl-8-[[(1R)-1-[3-(1,1-difluoro-2-hydroxy-2-methyl-propyl)-2-methyl-phenyl]ethyl]amino]-3-(methoxymethyl)-3,5-dimethyl-pyrrolo[3,2-g]phthalazin-2-one]
IC50: 15.8 nM

COCC1(C)C(=O)N(C2CC2)c2cc3c(N[C@H](C)c4cccc(C(F)(F)CO)c4F)nnc(C)c3cc21 (stereo partly drawn) [Compound 138, 1-cyclopropyl-8-[[(1R)-1-[3-(1,1-difluoro-2-hydroxy-ethyl)-2-fluoro-phenyl]ethyl]amino]-3-(methoxymethyl)-3,5-dimethyl-pyrrolo[3,2-g]phthalazin-2-one]
IC50: 6.61 nM

COC1(C)C(=O)N(C2CC2)c2cc3c(N[C@H](C)c4cccc(C(F)(F)C(C)(C)O)c4F)nnc(C)c3cc21 (stereo partly drawn) [Compound 139, 1-cyclopropyl-3-methoxy-3,5-dimethyl-8-[[(1R)-1-[3-(1,1-difluoro-2-hydroxy-2-methyl-propyl)-2-fluoro-phenyl]ethyl]amino]pyrrolo[2,3-g]phthalazin-2-one]
IC50: 11 nM

COC1(C)C(=O)N(C2CC2)c2cc3c(N[C@H](C)c4cccc(C(F)(F)C(C)(C)O)c4C)nnc(C)c3cc21 (stereo partly drawn) [Compound 140, 1-cyclopropyl-3-methoxy-3,5-dimethyl-8-[[(1R)-1-[3-(1,1-difluoro-2-hydroxy-2-methyl-propyl)-2-methyl-phenyl]ethyl]amino]pyrrolo[2,3-g]phthalazin-2-one]
IC50: 15.5 nM

COC1(C)C(=O)N(C)c2cc3c(N[C@H](C)c4cc(F)cc(C(F)(F)CO)c4F)nnc(C)c3cc21 (stereo partly drawn) [Compound 141, 3-methoxy-1,3,5-trimethyl-8-[[(1R)-1-[3-(1,1-difluoro-2-hydroxy-ethyl)-2,5-difluoro-phenyl]ethyl]amino]pyrrolo[2,3-g]phthalazin-2-one]
IC50: 20 nM

COC1(C)C(=O)N(C2CC2)c2cc3c(N[C@H](C)c4cccc(C(F)(F)CO)c4)nnc(C)c3cc21 (stereo partly drawn) [Compound 142, 1-cyclopropyl-3-methoxy-3,5-dimethyl-8-[[(1R)-1-[3-(1,1-difluoro-2-hydroxy-ethyl)phenyl]ethyl]amino]pyrrolo [2,3-g]phthalazin-2-one]
IC50: 12.9 nM

COC1(C)C(=O)N(C2CC2)c2cc3c(N[C@H](C)c4cccc(C(F)(F)CO)c4C)nnc(C)c3cc21 (stereo partly drawn) [Compound 143, 1-cyclopropyl-3-methoxy-3,5-dimethyl-8-[[(1R)-1-[3-(1,1-difluoro-2-hydroxy-ethyl)-2-methyl-phenyl]ethyl]amino]pyrrolo[2,3-g]phthalazin-2-one]
IC50: 11 nM

Cc1nnc(N[C@H](C)c2cccc(C(F)(F)F)c2)c2cc3c(cc12)n(C)c(=O)n3C1CCOC1 (stereo partly drawn) [Compound 144, 1,8-dimethyl-3-tetrahydrofuran-3-yl-5-[[(1R)-1-[3-(trifluoromethyl)phenyl]ethyl]amino]imidazo[4,5-g]phthalazin-2-one]
IC50: 11.7 nM

Cc1nnc(N[C@H](C)c2cccc(C(F)(F)F)c2)c2cc3[nH]c(=O)n(C)c3cc12 [Compound 145, 1,8-dimethyl-5-[[(1R)-1-[3-(trifluoromethyl)phenyl]ethyl]amino]-3H-imidazo[4,5-g]phthalazin-2-one]
IC50: 66.1 nM
